{"source": "ChEMBL document CHEMBL1159264", "about": "“Aplysillin A, a thrombin receptor antagonist from the marine sponge Aplysina fistularis fulva” (J Nat Prod, 1995)", "biological_target": "T1, Proteinase-activated receptor 1 (Homo sapiens, UniProt P25116)", "T1 sequence (P25116 whole entry)": "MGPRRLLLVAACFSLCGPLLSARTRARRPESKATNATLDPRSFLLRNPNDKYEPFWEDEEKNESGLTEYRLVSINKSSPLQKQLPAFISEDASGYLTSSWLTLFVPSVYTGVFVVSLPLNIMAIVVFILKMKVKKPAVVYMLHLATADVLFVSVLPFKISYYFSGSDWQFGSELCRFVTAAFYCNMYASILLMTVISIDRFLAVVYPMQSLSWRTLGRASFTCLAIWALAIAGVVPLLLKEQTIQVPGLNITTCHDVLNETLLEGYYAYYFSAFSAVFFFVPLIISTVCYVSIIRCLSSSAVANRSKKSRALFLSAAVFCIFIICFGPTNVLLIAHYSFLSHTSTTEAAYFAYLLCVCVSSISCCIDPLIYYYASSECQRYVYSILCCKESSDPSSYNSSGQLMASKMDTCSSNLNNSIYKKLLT", "test": "Displacement of [125I]thrombin from thrombin receptor in human platelet membrane", "assay_type": "cell membranes"}
{"smiles": "O=S(=O)(O)OC(=C\\c1cc(O)c(O)c(Br)c1)/C(=C\\c1ccc(O)c(Br)c1)OS(=O)(=O)O", "note": "[APLYSIILLIN A]", "values": [{"measurement": "IC50", "result": 20, "unit": "µM"}]}
